Entries after “also recorded” stand apart in the source; their conditions may differ.
Legend:
iBMK-myrAkt cells [1] = test: Cell growth with SCD1 inhibitor; assay type: cell-based, mouse; conditions: 10% serum
Description: (§1) Cell lines were from ATCC with the following exceptions: the immortalized Baby Mouse Kidney (iBMK) cell lines were derived from primary kidney epithelial cells from Bax^−/−/Bak^−/− mice, immortalized by E1A and dominant-negative p53 expression, and transfected with control vector, human oncogenic H-Ras^V12G, or myrAKT (31); and the Human Pancreatic Nestin Expressing (HPNE) cells (a generous gift of A. Maitra) were developed from human pancreatic duct by transduction with a retroviral expression vector (pBABEpuro) containing the hTERT gene and transfected with control vector or human oncogenic K-Ras^G12D. Cell lines were routinely passaged in Dulbecco's Modified Eagle Medium (DMEM, Mediatech) with 25 mM glucose and 4 mM glutamine and supplemented with 10% Fetal Bovine Serum (HyClone), 25 IU/ml penicillin, and 25 μg/ml streptomycin (MP Biomedicals) and split at 80% confluence. Metabolic experiments were performed in 6 cm culture dishes with 3 ml of DMEM containing 10% dialyzed serum (DFBS, HyClone). For isotope labeling, glucose and glutamine were replaced with their U-^13C-labeled forms (Cambridge Isotope Labs). […]
(§2) Cell proliferation was determined with either Packed Cell Volume tubes (PCV, Techno Plastic Products AG) or with the xCELLigence system (Roche). […] Xenograft tumors were measured biweekly and tumor volume calculated as volume=(length×width^2×π/6).

iBMK-H-Ras^V12G cells [2] = test: Cell growth with SCD1 inhibitor; assay type: cell-based, mouse; conditions: 10% serum, for 3 population doublings
Description: as §1, §2

SCD1 [3] = biological target: T1, SCD1 (Mus musculus, UniProt P13516); test: C18:1 labeling from U-13C-glucose and U-13C-glutamine under SCD1 inhibition, iBMK cells; assay type: cell-based; conditions: 200 nM CAY10566, iBMK-H-Ras^V12G and iBMK-myrAkt cells, 48 h
T1 construct: endogenous in cells; host or cells: iBMK cells transfected with human H-Ras V12G or myrAkt (SCD1 itself not transfected)
T1 sequence (P13516 1-355): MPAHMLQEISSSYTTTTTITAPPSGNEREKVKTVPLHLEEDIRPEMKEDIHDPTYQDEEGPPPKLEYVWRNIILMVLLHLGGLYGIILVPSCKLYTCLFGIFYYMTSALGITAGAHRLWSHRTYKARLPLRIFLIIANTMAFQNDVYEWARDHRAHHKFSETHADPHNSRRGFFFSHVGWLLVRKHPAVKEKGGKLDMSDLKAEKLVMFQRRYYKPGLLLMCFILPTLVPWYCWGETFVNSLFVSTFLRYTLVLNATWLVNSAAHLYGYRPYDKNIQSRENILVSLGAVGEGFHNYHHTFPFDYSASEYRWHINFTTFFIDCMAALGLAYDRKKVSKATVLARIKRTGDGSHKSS
Description: as §1, with “Labs). Hypoxia experiments were performed in a hypoxic glove box (0.5% or 1% O2 as indicated, 5% CO2 and 94-94.5% N2, 37° C.) (Coy Laboratory Products). Cells and media were equilibrated in low oxygen overnight before experiment initiation. CAY10566 was from Cayman Chemical.” for “Labs).”

A549 lung cancer cells = test: Cell growth with SCD1 inhibitor (xCELLigence real-time proliferation / culture dishes); assay type: cell-based, human
Description: (§3) Cell lines were from ATCC with the following exceptions: the immortalized Baby Mouse Kidney (iBMK) cell lines were derived from primary kidney epithelial cells from Bax^−/−/Bak^−/− mice, immortalized by E1A and dominant-negative p53 expression, and transfected with control vector, human oncogenic H-Ras^V12G, or myrAKT (31); and the Human Pancreatic Nestin Expressing (HPNE) cells (a generous gift of A. Maitra) were developed from human pancreatic duct by transduction with a retroviral expression vector (pBABEpuro) containing the hTERT gene and transfected with control vector or human oncogenic K-Ras^G12D. Cell lines were routinely passaged in Dulbecco's Modified Eagle Medium (DMEM, Mediatech) with 25 mM glucose and 4 mM glutamine and supplemented with 10% Fetal Bovine Serum (HyClone), 25 IU/ml penicillin, and 25 μg/ml streptomycin (MP Biomedicals) and split at 80% confluence. Metabolic experiments were performed in 6 cm culture dishes with 3 ml of DMEM containing 10% dialyzed serum (DFBS, HyClone). For isotope labeling, glucose and glutamine were replaced with their U-^13C-labeled forms (Cambridge Isotope Labs). Hypoxia experiments were performed in a hypoxic glove box (0.5% or 1% O2 as indicated, 5% CO2 and 94-94.5% N2, 37° C.) (Coy Laboratory Products). Cells and media were equilibrated in low oxygen overnight before experiment initiation. CAY10566 was from Cayman Chemical. Lipid supplements were from Avanti Polar Lipids. LPC(18:1) and LPC(18:0) were dissolved in phosphate buffered saline (PBS); MG(18:1) in methanol; and PC(16:0-18:1) in 1:9 chloroform:methanol. Organic solvents were <0.1% v/v in the medium.
as §2, with “(Roche). Animal studies were performed following the guidelines for proper and humane use of animals in research under an IACUC-approved protocol.” for “(Roche).”

iBMK-myrAkt tumors = test: Allograft tumor growth in athymic nude mice; assay type: in vivo, mouse; conditions: Akt-driven tumors, 2.5 mg/kg CAY10566 p.o. BID, day 13 or 14 post therapy
Description: (§4) Cell proliferation was determined with either Packed Cell Volume tubes (PCV, Techno Plastic Products AG) or with the xCELLigence system (Roche). Animal studies were performed following the guidelines for proper and humane use of animals in research under an IACUC-approved protocol. To generate allografts, 1×10^7 iBMK cells were implanted in matrigel (BD Biosciences) into nu/nu athymic female mice. After establishment of palpable tumors, mice were randomized to receive 2.5 mg/kg BID CAY10566 p.o. in 0.5% methylcellulose or vehicle control. Xenograft tumors were measured biweekly and tumor volume calculated as volume=(length×width^2×π/6).

iBMK-H-Ras^V12G tumors = test: Allograft tumor growth in athymic nude mice; assay type: in vivo, mouse; conditions: Ras-driven tumors, 2.5 mg/kg CAY10566 p.o. BID, day 13 or 14 post therapy
Description: as §4

SCD1 [4] = biological target: T2, SCD1 (Homo sapiens, UniProt O00767); test: C18:1 labeling from U-13C-glucose and U-13C-glutamine under SCD1 inhibition, A549 cells; assay type: cell-based; conditions: 200 nM CAY10566, A549 cells
T2 construct: endogenous in cells; host or cells: A549 lung cancer cells (ATCC)
T2 sequence (O00767 1-359): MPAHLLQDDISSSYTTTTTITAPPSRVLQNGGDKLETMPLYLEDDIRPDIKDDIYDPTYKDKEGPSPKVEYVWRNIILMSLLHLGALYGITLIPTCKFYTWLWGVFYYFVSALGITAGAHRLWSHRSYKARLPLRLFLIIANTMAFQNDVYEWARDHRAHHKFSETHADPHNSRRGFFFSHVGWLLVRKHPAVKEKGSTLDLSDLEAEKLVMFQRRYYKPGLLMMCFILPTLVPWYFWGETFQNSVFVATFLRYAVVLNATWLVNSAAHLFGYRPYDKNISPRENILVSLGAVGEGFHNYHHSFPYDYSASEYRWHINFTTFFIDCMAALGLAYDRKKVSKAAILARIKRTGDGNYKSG
Description: as §3, with “Lipid supplements were from Avanti Polar Lipids. LPC(18:1) and LPC(18:0) were dissolved in phosphate buffered saline (PBS); MG(18:1) in methanol; and PC(16:0-18:1) in 1:9 chloroform:methanol. Organic solvents were <0.1% v/v in the medium.” left out

iBMK-myrAkt cells [5] = test: Packed cell volume with SCD1 inhibitor plus supplemented lipids; assay type: cell-based, mouse; conditions: 200 nM SCDi (CAY10566), 20 μM lipid, 72 h
Description: as §3
as §2, with “(Roche). Animal studies were performed following the guidelines for proper and humane use of animals in research under an IACUC-approved protocol.” for “(Roche).”

iBMK-H-Ras^V12G cells [6] = test: as above; assay type: cell-based, mouse; conditions: 200 nM SCDi (CAY10566), 20 μM lipid, 72 h
Description: as §3
as §2, with “(Roche). Animal studies were performed following the guidelines for proper and humane use of animals in research under an IACUC-approved protocol.” for “(Roche).”

iBMK cells = test: Lipid composition and C18:1 import after LPC(18:1) supplementation; assay type: cell-based, mouse; conditions: 20 μM LPC(18:1)
Description: as §3, with “Lipid supplements were from Avanti Polar Lipids. LPC(18:1) and LPC(18:0) were dissolved in phosphate buffered saline (PBS); MG(18:1) in methanol; and PC(16:0-18:1) in 1:9 chloroform:methanol. Organic solvents were <0.1% v/v in the medium.” left out

cells = test: Rescue of cells from SCD1 inhibition (discussion summary); assay type: cell-based; conditions: cell line not stated
A549 cells = test: Packed cell volume with SCD1 inhibitor plus supplemented lipids; assay type: cell-based, human; conditions: 200 nM SCDi (CAY10566), 20 μM lipid, 72 h
Description: as §1, §2

| Compound | cell growth (iBMK-myrAkt cells [1]) | cell growth (iBMK-H-Ras^V12G cells [2]) | C18:1 labeling / SCD1 block (SCD1 [3]) | cell growth in real-time cell proliferation assay (A549 lung cancer cells; 200 nM CAY10566, 10% serum) | cell growth in standard cell culture conditions (A549 lung cancer cells; 200 nM CAY10566, first 48 h of growth) | cell growth, sensitivity to SCD1 inhibition (A549 lung cancer cells; SCD1 inhibitor, 2% serum) | mean tumor volume relative to untreated tumors (iBMK-myrAkt tumors) | mean tumor volume relative to untreated tumors (iBMK-H-Ras^V12G tumors) | C18:1 labeling from U-13C-glucose and U-13C-glutamine (SCD1 [4]) | proliferation during SCD1 inhibition with supplemented lipid (iBMK-myrAkt cells [5]) | proliferation / cell growth during SCD1 inhibition with supplemented lipid (iBMK-H-Ras^V12G cells [6]) | desaturation index (C18:1/C18:0) (iBMK cells; 72 h, iBMK-H-Ras^V12G cells) | fraction of C18:1 derived from import (iBMK cells; both iBMK-H-Ras^V12G and iBMK-myrAkt cells) | rescue of cells from SCD1 inhibition (cells) | proliferation during SCD1 inhibition with supplemented lipid (A549 cells) |
| --- | --- | --- | --- | --- | --- | --- | --- | --- | --- | --- | --- | --- | --- | --- | --- |
| Cc1nnc(-c2ccc(N3CCC(Oc4cc(F)ccc4Cl)CC3)nn2)o1 [CAY10566] | severely impaired | grew almost normally | fully blocked; also recorded: sufficient to fully block C18:1 labeling | did not impair cell growth | did not impair cell growth | sensitive | 0.51+/−0.04 | 0.67+/−0.05 | completely blocked; also recorded: blocks C18:1 labeling |  |  |  |  |  |  |
| CCCCCCCC/C=C\CCCCCCCC(=O)OC[C@@H](O)COP(=O)([O-])OCC[N+](C)(C)C [LPC(18:1), oleoyl lysophosphatidylcholine] |  |  |  |  |  |  |  |  |  | only partially | fully restored proliferation | increased significantly and selectively | increasing | rescues cells from SCD1 inhibition | complete rescue |
| oleolyl-monoacylglycerol [MG(18:1)] |  |  |  |  |  |  |  |  |  |  | restored cell proliferation |  |  |  |  |
